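Five compound concentrations were applied to cells in 96-well plates for 48 hours; endpoints were derived by simple linear interpolation of the resulting dose-response curve. GI50 is the concentration that inhibits growth by half. TGI marks complete inhibition of growth.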
Tests used:
Assay in all cases: inhibition of tumour cell growth, NCI panel, 48 h
[1] = tested on: MDA-MB-231 breast
[2] = tested on: SK-OV-3 ovarian
[3] = tested on: ACHN renal
[4] = tested on: NCI-H23 lung
[5] = tested on: HOP-62 NSCLC
[6] = tested on: K-562 leukemia
[7] = tested on: CCRF-CEM leukemia
[8] = tested on: MCF7 breast
[9] = tested on: OVCAR-5 ovarian
[10] = tested on: A549 NSCLC
[11] = tested on: SNB-75 CNS
[12] = tested on: HCT-116 colon

Compound | TGI [1] [µM] | TGI [2] [µM] | GI50 [3] [µM] | TGI [3] [µM] | TGI [4] [µM] | TGI [5] [µM] | GI50 [6] [µM] | TGI [6] [µM] | GI50 [7] [µM] | TGI [7] [µM] | GI50 [8] [µM] | TGI [8] [µM] | TGI [9] [µM] | TGI [10] [µM] | GI50 [11] [µM] | TGI [11] [µM] | GI50 [12] [µM] | TGI [12] [µM]
CCCCCCCCCC[C@@H](O)[C@H]1CC[C@H]([C@H]2CC[C@H]([C@H](O)CCCCCCCCCC[C@@H]3CC(CC(C)=O)C(=O)O3)O2)O1 (some centres not stated) | > 50 | > 50 | 0.422 | > 50 | > 50 | > 50 | 0.884 | > 50 | 1.74 | > 50 | 1.85 | > 50 | > 50 | > 50 | 3.88 | > 50 | 1.32 | > 37.2
CC1(C)CC2(C)CC1CC2O (configuration not stated) | > 100 | > 100 | – | – | > 100 | > 100 | – | > 100 | – | > 100 | – | > 100 | > 100 | > 100 | – | > 100 | – | > 100
CCOC(=O)c1cc(C2(O)CCN(Cc3ccccc3)C2=O)c(-c2cc(C)no2)[nH]1 (configuration not stated) | > 100 | – | – | > 100 | > 100 | > 100 | – | > 100 | – | > 100 | – | > 100 | > 100 | > 100 | – | 85.8 | – | > 100
c1cc2nnc1SCCSCCSc1ccc(nn1)SCCSCCS2 | > 100 | > 100 | – | > 100 | > 100 | > 100 | – | > 100 | – | > 100 | – | > 100 | > 100 | > 100 | – | 77.3 | – | > 100
CCOC(=O)c1cc2c([N+](=O)[O-])c(NC(C)=O)ccc2s1 | 83.9 | > 100 | – | > 100 | > 100 | > 100 | – | > 100 | – | > 100 | – | > 100 | > 100 | > 100 | – | 94.1 | – | > 100
COC(=O)C1(Cc2ccccc2)Cc2cc3c(cc2C1=O)CCC3 (configuration not stated) | > 100 | > 100 | – | > 100 | > 100 | > 100 | – | 81.8 | – | 52.9 | – | 42.9 | > 100 | > 100 | – | > 100 | – | > 100
Cc1sc2nc3n(c(=O)c2c1C)N=CN(c1ccccc1)C3 | > 100 | > 100 | – | > 100 | > 100 | 65.3 | – | > 100 | – | > 100 | – | > 100 | > 100 | > 100 | – | > 100 | – | > 100
C/C(=N\NC(=S)NC(C)C)c1nc2ncccc2[nH]1 | > 100 | 33.4 | – | > 100 | – | > 64.2 | – | > 100 | – | > 100 | – | > 100 | > 100 | > 100 | – | > 66.7 | – | > 100
O=c1[nH]cnc2c(C3OC(CO)C(O)C3O)c[nH]c12 (configuration not stated) | > 100 | > 100 | – | > 100 | > 100 | > 100 | – | > 100 | – | > 100 | – | > 100 | > 100 | > 100 | – | > 100 | – | > 100
CC[C@@H]1CC[C@@H]2[C@H](CC[C@]3(C)[C@@H](O)CC[C@@H]23)[C@H]1C(=O)O | > 100 | > 100 | – | > 100 | > 100 | > 100 | – | > 100 | – | > 100 | – | > 100 | > 100 | > 100 | – | > 100 | – | > 100
CCN(CC)CCOC(c1cc(OC)ccc1OC)c1ccc2n1-c1ccccc1OC2 (configuration not stated) | 5.46 | – | – | 26.7 | 25.6 | 40.2 | – | 23.5 | – | 17.2 | – | 30.2 | 37.4 | 26.9 | – | 17.3 | – | > 100
CCOC(=O)c1sc2nc(SC)nc3c2c1N=CN3c1ccc(Br)cc1 | > 100 | > 100 | – | > 100 | > 100 | > 100 | – | > 100 | – | > 100 | – | > 100 | > 100 | > 100 | – | > 100 | – | > 100
COc1ccc2c(c1)c1c(n2CCN2CCOCC2)-c2ccccc2CC1 | > 100 | > 100 | – | > 100 | > 100 | > 100 | – | 40.2 | – | 69.5 | – | > 100 | > 100 | > 100 | – | > 100 | – | > 100
Cc1ccc(S(=O)(=O)N2CCN3C(=O)c4ccccc4C32c2ccc(F)cc2)cc1 (configuration not stated) | > 100 | > 100 | – | > 100 | > 100 | > 100 | – | > 100 | – | 80 | – | > 100 | > 100 | > 100 | – | > 100 | – | > 100
Cc1cc2c(c(C(=O)NCCC(=O)O)c1)Oc1c(cc(C)cc1C(=O)NCCC(=O)O)S2 | > 100 | > 100 | – | > 100 | > 100 | > 100 | – | > 100 | – | > 100 | – | > 100 | > 100 | > 100 | – | > 100 | – | > 100
O=C1CC2C=CC(O)C(C1)C2 (configuration not stated) | > 100 | > 100 | – | > 100 | > 100 | > 100 | – | > 100 | – | > 100 | – | > 100 | > 100 | – | – | > 100 | – | > 100
Clc1nc(Cl)nc(NC23CC4CC(CC(C4)C2)C3)n1 | 36.7 | > 57.1 | – | > 57.7 | 34.1 | 34.5 | – | 33.7 | – | 23.1 | – | > 64.3 | 39.5 | 38.5 | – | 36.5 | – | 31.3
O=C1CC(O)c2c1csc2Br (configuration not stated) | 55 | > 100 | – | 45.4 | 59.1 | > 100 | – | 76.7 | – | 55.1 | – | 45.7 | > 100 | > 100 | – | > 100 | – | 49.1

From PubChem BioAssay (NCI)
